We go through 45 compounds from publication PMC11129182, “Development of Inhibitors, Probes, and PROTAC Provides a Complete Toolbox to Study PARK7 in the Living Cell” (Journal of Medicinal Chemistry, 2024).

Where two headings read alike, the source gives them in different places.

In this experiment the target is T1, PARK7 (Homo sapiens, UniProt Q99497).
T1 sequence (Q99497 1-189): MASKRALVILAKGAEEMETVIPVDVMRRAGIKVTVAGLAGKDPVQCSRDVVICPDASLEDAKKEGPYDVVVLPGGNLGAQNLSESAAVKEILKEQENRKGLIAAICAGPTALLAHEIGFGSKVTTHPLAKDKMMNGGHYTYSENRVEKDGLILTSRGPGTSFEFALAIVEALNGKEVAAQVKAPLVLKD
Put plainly: High-throughput screen of the crude compound library, PARK7 fluorescence polarization (FP) assay with FP reagent JYQ-107. It counts as biochemical. Particulars: 1.25 µM, crude compound library, read-out: HTS FP assay %Inhibition (1.25 µM). From the text: Therefore, taking JYQ-88 as a starting point, we conducted an optimization to further improve the molecule in terms of inhibitory potency, specificity, and cellular uptake. […] First, a small tailored library was designed and synthesized to investigate whether the introduction of larger, hydrophilic substituents on JYQ-88 would enhance the interaction with the PARK7 pocket. […] The second approach involved the generation of a compound library containing diverse substituents at the azidomethyl position. […] We next performed a high-throughput screen of this crude compound library using our in-house developed PARK7 fluorescence polarization (FP) assay.[15]

As a reminder, the inhibition is the drop in the measured response relative to a control, in per cent. As to `N#CN1CC[C@@H](C(=O)Nc2nc3c(s2)CN(C(=O)C2CN(C(=O)OCc4ccccc4)CCO2)CC3)C1` (stereo partly drawn) [compound 216], the inhibition at 1.25 µM came out at 76.7%.

Turning to `N#CN1CC[C@@H](C(=O)Nc2nc3c(s2)CN(C(=O)c2ccc(-c4nnco4)cc2)CC3)C1` [compound 301], the inhibition at 1.25 µM was 85.9%. Still for that read-out and setting: then `Cc1ccc(S(=O)(=O)N[C@@H](Cc2ccccc2)C(=O)N2CCc3nc(NC(=O)[C@@H]4CCN(C#N)C4)sc3C2)cc1` [compound 207], with 70%.

As to `N#CN1CC[C@@H](C(=O)Nc2nc3c(s2)CN(C(=O)c2cc(-c4ccc(Br)cc4)ns2)CC3)C1` [compound 81], the inhibition at 1.25 µM worked out at 80.2%. Same read-out and setting: the value for `Cc1nc(-c2ccco2)ccc1C(=O)N1CCc2nc(NC(=O)[C@@H]3CCN(C#N)C3)sc2C1` [compound 248] was 84.8%. As to `C#CCCC(=O)N1CCc2nc(NC(=O)[C@@H]3CCN(C#N)C3)sc2C1` [compound 401], the inhibition at 1.25 µM (FP reagent JYQ-107) was 82.4%. With `Cc1cnn(-c2c(C(=O)N3CCc4nc(NC(=O)[C@@H]5CCN(C#N)C5)sc4C3)c(C)nn2C)c1` [compound 26], the inhibition at 1.25 µM turned out to be 61.4%. As to `N#CN1CC[C@@H](C(=O)Nc2nc3c(s2)CN(C(=O)c2cc(N4CCOCC4)ccn2)CC3)C1` [compound 201], the inhibition at 1.25 µM was determined as 72.2%.

As for `N#CN1CC[C@@H](C(=O)Nc2nc3c(s2)CN(C(=O)c2ccccc2CCc2ccccc2)CC3)C1` [compound 413], the inhibition at 1.25 µM (FP reagent JYQ-107) came out at 79.7%. For `CN1C(=O)C[C@@H](C(=O)N2CCc3nc(NC(=O)[C@@H]4CCN(C#N)C4)sc3C2)[C@@H]1c1cccnc1` [compound 222], the inhibition at 1.25 µM turned out to be 63.8%. Same read-out and setting: then `Cc1c(S(=O)(=O)N2CCC(C(=O)N3CCc4nc(NC(=O)[C@@H]5CCN(C#N)C5)sc4C3)CC2)cnn1C` [compound 86], with 70.5%; and `N#CN1CC[C@@H](C(=O)Nc2nc3c(s2)CN(C(=O)C2CCN(C(=O)CCOc4ccccc4)CC2)CC3)C1` [compound 113], with 68.7%. Consider `N#CN1CC[C@@H](C(=O)Nc2nc3c(s2)CN(C(=O)c2sccc2Br)CC3)C1` [compound 421], for which, under “FP reagent JYQ-107”, the inhibition at 1.25 µM turned out to be 79.7%. On to `N#CN1CC[C@@H](C(=O)Nc2nc3c(s2)CN(C(=O)c2cnoc2-c2ccccc2C(F)(F)F)CC3)C1` [compound 185], for which the inhibition at 1.25 µM worked out at 77.5%. Same read-out and setting: the value for `CN1CCN(C(=O)c2ccccc2C(=O)N2CCc3nc(NC(=O)[C@@H]4CCN(C#N)C4)sc3C2)CC1` [compound 129] was 71.3%; that for `N#CN1CC[C@@H](C(=O)Nc2nc3c(s2)CN(C(=O)Cc2ccn(-c4ccccc4)n2)CC3)C1` [compound 162] was 82.9%. With `N#CN1CC[C@@H](C(=O)Nc2nc3c(s2)CN(C(=O)c2cccc(B(O)O)c2)CC3)C1` [compound 444], the inhibition at 1.25 µM (FP reagent JYQ-107) was 68.5%. For the compound `Cc1nc(C(=O)N2CCc3nc(NC(=O)[C@@H]4CCN(C#N)C4)sc3C2)co1` [compound 126], the inhibition at 1.25 µM came to 70.6%.

Consider `N#CN1CC[C@@H](C(=O)Nc2nc3c(s2)CN(C(=O)C2(c4ccccc4Cl)CCOCC2)CC3)C1` [compound 94], for which the inhibition at 1.25 µM turned out to be 65.7%. For `Cc1ccc(NS(=O)(=O)c2cccc(C(=O)N3CCc4nc(NC(=O)[C@@H]5CCN(C#N)C5)sc4C3)c2)cc1` [compound 31], the inhibition at 1.25 µM amounted to 83.8%. Still for that read-out and setting: the value for `Cc1n[nH]c(C)c1S(=O)(=O)N1CCC(C(=O)N2CCc3nc(NC(=O)[C@@H]4CCN(C#N)C4)sc3C2)CC1` [compound 120] was 46.4%; that for `Cc1onc(-c2ccccn2)c1C(=O)N1CCc2nc(NC(=O)[C@@H]3CCN(C#N)C3)sc2C1` [compound 176] was 68.5%. On to `CC(C)(C)OC(=O)Nc1ccccc1C(=O)N1CCc2nc(NC(=O)[C@@H]3CCN(C#N)C3)sc2C1` [compound 396], for which the inhibition at 1.25 µM (FP reagent JYQ-107) turned out to be 65.2%.

With `CN1CCN(c2ccc(C(=O)N3CCc4nc(NC(=O)[C@@H]5CCN(C#N)C5)sc4C3)cc2)CC1` [compound 472], for the setting “FP reagent JYQ-107”, the inhibition at 1.25 µM came to 70.8%. Turning to `N#CN1CC[C@@H](C(=O)Nc2nc3c(s2)CN(C(=O)c2cnn(-c4ccncc4)c2)CC3)C1` [compound 41], the inhibition at 1.25 µM worked out at 66.3%. Still for that read-out and setting: the value for `N#CN1CC[C@@H](C(=O)Nc2nc3c(s2)CN(C(=O)C2Cc4ccccc42)CC3)C1` (stereo partly drawn) [compound 179] was 81%. `N#CN1CC[C@@H](C(=O)Nc2nc3c(s2)CN(C(=O)Cc2ccccc2[N+](=O)[O-])CC3)C1` [compound 400]: the inhibition at 1.25 µM (FP reagent JYQ-107) was found to be 80.8%. For the compound `N#CN1CC[C@@H](C(=O)Nc2nc3c(s2)CN(C(=O)c2cccc(Cn4cncn4)c2)CC3)C1` [compound 278], the inhibition at 1.25 µM is 80.6%. The same measure, in the same setting: the value for `Cc1ccc(N(CCC(=O)N2CCc3nc(NC(=O)[C@@H]4CCN(C#N)C4)sc3C2)S(=O)(=O)c2ccccc2)cc1` [compound 79] was 87.6%. As to `N#CN1CC[C@@H](C(=O)Nc2nc3c(s2)CN(C(=O)c2ccc(B(O)O)cc2)CC3)C1` [compound 407], the inhibition at 1.25 µM (FP reagent JYQ-107) stood at 58.7%. Take `COCC1CCN(c2ccc(C(=O)N3CCc4nc(NC(=O)[C@@H]5CCN(C#N)C5)sc4C3)cc2)C1` (stereo partly drawn) [compound 229]: the inhibition at 1.25 µM worked out at 72.8%. The same measure, in the same setting: then `N#CN1CC[C@@H](C(=O)Nc2nc3c(s2)CN(C(=O)C2CCCN(S(=O)(=O)c4cccs4)C2)CC3)C1` (stereo partly drawn) [compound 288], with 78.6%; and `N#CN1CC[C@@H](C(=O)Nc2nc3c(s2)CN(C(=O)c2ccc(S(=O)(=O)Nc4cccc(Cl)c4F)o2)CC3)C1` [compound 205], with 72.5%.

In the case of `C#CCCCC(=O)N1CCc2nc(NC(=O)[C@@H]3CCN(C#N)C3)sc2C1` [compound 416], the inhibition at 1.25 µM (FP reagent JYQ-107) turned out to be 75.5%.

For `COc1ccc(C)cc1C(=O)N1CCc2nc(NC(=O)[C@@H]3CCN(C#N)C3)sc2C1` [compound 395], the inhibition at 1.25 µM (FP reagent JYQ-107) is 84.8%. As for `CN(C)S(=O)(=O)c1ccc(N2CCCCC2)c(C(=O)N2CCc3nc(NC(=O)[C@@H]4CCN(C#N)C4)sc3C2)c1` [compound 297], the inhibition at 1.25 µM stood at 56.1%.

Take `N#CN1CC[C@@H](C(=O)Nc2nc3c(s2)CN(C(=O)CCCCBr)CC3)C1` [compound 410]: the inhibition at 1.25 µM (FP reagent JYQ-107) was found to be 47.7%. For the compound `N#CN1CC[C@@H](C(=O)Nc2nc3c(s2)CN(C(=O)c2c[nH]nc2-c2cccnc2)CC3)C1` [compound 56], the inhibition at 1.25 µM is 67.6%. Still for that read-out and setting: the value for `Cc1ccc(Oc2ccc(C(=O)N3CCc4nc(NC(=O)[C@@H]5CCN(C#N)C5)sc4C3)nc2)cc1` [compound 316] was 85.7%.

As for `N#CN1CC[C@@H](C(=O)Nc2nc3c(s2)CN(C(=O)CCc2ccc(O)cc2)CC3)C1` [compound 438], the inhibition at 1.25 µM (FP reagent JYQ-107) turned out to be 74.4%.

For the compound `Cn1cc(-c2ccc(C(=O)N3CCc4nc(NC(=O)[C@@H]5CCN(C#N)C5)sc4C3)o2)cn1` [compound 220], the inhibition at 1.25 µM worked out at 27.6%.

As for `N#CN1CC[C@@H](C(=O)Nc2nc3c(s2)CN(C(=O)c2cc(C=O)ccc2O)CC3)C1` [compound 427], the inhibition at 1.25 µM (FP reagent JYQ-107) came to 63.9%. As for `Cc1cc(C(=O)N(C)c2ccccc2C(=O)N2CCc3nc(NC(=O)[C@@H]4CCN(C#N)C4)sc3C2)sc1C` [compound 260], the inhibition at 1.25 µM came out at 61.7%.

Consider `Cn1nccc1[C@@H]1OCCC[C@H]1C(=O)N1CCc2nc(NC(=O)[C@@H]3CCN(C#N)C3)sc2C1` [compound 80], for which the inhibition at 1.25 µM is 68.5%. As to `N#CN1CC[C@@H](C(=O)Nc2nc3c(s2)CN(C(=O)c2cccc4cc5ccccc5cc24)CC3)C1` [compound 456], the inhibition at 1.25 µM (FP reagent JYQ-107) amounted to 80.6%.
